Test results: patent US6639107B1, “Cyclopentyl sulfonamide derivatives” (Eli Lilly and Company, priority 1999, dated 2003)

melting point: 128 to 130 °C
Compound: CC(C)S(=O)(=O)N[C@H]1CCC[C@@H]1c1ccc(Br)cc1 (racemic) [Example 48, (+,−) Trans Propane-2-sulfonic Acid [2-(4-bromo-phenyl)-cyclopentyl]-amide]
